Results published in US10611742B2, “4-oxo-4,5-dihydrothiazole derivative, preparation method and use thereof” (Institute of Pharmacology and Toxicology Academy of …, priority 2015, dated 2020).

Assays:
Type in all cases: cell-based
[1] = system: enterovirus EV71 (SZ-98 strain); assay: anti-EV71 activity, therapeutic effect on Vero cell (CPE inhibition, Celltiter Glo)
Experimental: (§1) Test principle: Vero cell, MRC-5 cell, and RD cell were used as host of virus, respectively, and samples were tested for their inhibition of cytopathic effect (CPE) caused by virus.
(§2) 1. Virus strain: enterovirus EV71 (SZ-98 strain, provided by Chinese Center for Disease Control and Prevention), Vero cell (provided by the Cell Bank of Chinese Academy of Sciences), MRC-5 cell (provided by the Cell Bank of Chinese Academy of Sciences), and RD cell (provided by the Cell Bank of Chinese Academy of Sciences), were subjected to passage culture, respectively, and stored at −80° C.
(§3) 2. Sample treatment: a test sample (Compounds 1-14 and positive control agent) was dissolved in dimethyl sulfoxide (DMSO) to prepare a stock solution, which was stored at −20° C. The stock solution was diluted with DMEM medium (Gibco Company) containing 2% fetal bovine serum (Gibco Company) to prepare a 100 μM solution before use, and was 3-fold diluted with the medium to obtain 8 diluted concentrates.
(§4) 3. Positive control agent: Con1 (pitstop2) (purchased from AmyJet Scientific Inc., Abcam), a broad-spectrum antiviral inhibitor.
(§5) 4. Test method: • 4.1 Therapeutic effect: the cells were seeded on a 96-well culture plate, and cultured in a 5% CO2, 37° C. incubator for 24 h. About 100 TCID50 enterovirus EV71 was added to each well. After adsorption at 37° C. for 1 h, the virus solution was discarded, and a drug was added at different diluted concentrates, respectively. Meanwhile, virus control and cell control were set, and cultured at 37° C. […] The virus-inhibition rate of a sample at each concentration was calculated based on the chemiluminescent value, the sample concentration was used as abscissa, and the inhibition rate was used as ordinate, and S-Curve fitting was performed by using Origin software. Half maximal inhibitory concentration (IC50) of each sample for enterovirus EV71 was calculated based on the fitting results. Median toxic concentration (TC50) was determined by the same method. […] To each well, a drug was added at a different diluted concentration, then the cells were cultured at 37° C. for 2 h, and then the drug was discarded. About 100 TCID50 enterovirus EV71 was added to each well, adsorbed at 37° C. for 1.5 h, then the virus solution was discarded, and a maintenance medium free of drug was added. Meanwhile, virus control and cell control were set, and cultured at 37° C. […] The virus-inhibition rate of a sample at each concentration was calculated, and half maximal inhibitory concentration (IC50), median toxic concentration (TC50), and selection index (SI) of each sample for enterovirus EV71 were calculated. The methods for determining and calculating them were as described in Item 4.1

[2] = system: enterovirus EV71 (SZ-98 strain); assay: anti-EV71 activity, therapeutic effect on MRC-5 cell (CPE inhibition, Celltiter Glo); details: MRC5
Experimental: as §1, §2, §3, §4, §5

[3] = system: enterovirus EV71 (SZ-98 strain); assay: anti-EV71 activity, therapeutic effect on RD cell (CPE inhibition, Celltiter Glo)
Experimental: as §1, §2, §3, §4, §5

[4] = system: enterovirus EV71 (SZ-98 strain); assay: anti-EV71 activity, preventive effect on Vero cell (CPE inhibition)
Experimental: as §1, §2, §3, §4, §5

[5] = system: enterovirus EV71 (SZ-98 strain); assay: anti-EV71 activity, preventive effect on RD cell (CPE inhibition)
Experimental: as §1, §2, §3, §4, §5

[6] = median toxic concentration on Vero cell; details: African green monkey, Vero cells; for CC50: Table 1-1 (therapeutic effect), read-out: TC50 (the source's name); for CC50 at 2 h: Table 2-1 (preventive effect), read-out: TC50
Experimental: as §2, §3, §5

Vero cell = assay: median toxic concentration on Vero cell
Experimental: as §2, §3, §5

[7] = median toxic concentration on MRC-5 cell; details: human, MRC-5 cells, Table 1-2 (therapeutic effect), read-out: TC50 (the source's name)
Experimental: as §2, §3, §5

[8] = median toxic concentration on RD cell; details: human, RD cells; for CC50 at 2 h: Table 2-2 (preventive effect), read-out: TC50; for CC50: read-out: TC50 (the source's name)
Experimental: as §2, §3, §5

[9] = system: clathrin-mediated endocytosis of transferrin; assay: inhibition of clathrin-mediated endocytosis of transferrin in HeLa cells (fluorescence microscope); details: for inhibitory effect on endocytosis of transferrin (in words): 1.25 to 40 μmol/L; for inhibition at 20 µM: Homo sapiens, 20 μM compound, read-out: Inhibition rate
Experimental: 1. Experiment principle: transferrin was a key protein for clathrin-mediated endocytosis. Therefore, by determining the effect of a compound on transferrin in HeLa cell, the inhibitory effect of the compound on clathrin-mediated endocytosis could be evaluated. 2. Sample treatment: a test compound was dissolved in DMSO to prepare a stock solution, which was stored at −20° C. The stock solution was diluted with HEPES buffer (25 mm HEPES, 20 mm Glucose, 1% BSA, sterile water) to prepare a solution with an initial concentration of […] before use, and was 2-fold diluted with the buffer to obtain 6 diluted concentrations from 1.25 to 40 μmol/L. 4. Test method: HeLa cells (provided by the Cell Bank of Chinese Academy of Sciences) were seeded on a 24-well culture plate coated with 0.1 mg/ml polylysine, a serum-free medium DMEM (Gibco Company) was added at 500 μl/well, and the cells were cultured for one night. To each well, 0.5 μl a test compound at a different diluted concentration or 0.1 v/v % DMSO was added, then the pretreatment was performed for 15 min, and then 20 μg/ml alexa^568 transferrin (2 μl) (TF, SIGMA-ALDRICH Company) was added, and the incubation was carried out at 37° C. for 15 min. The resultant mixture was then washed with Live Cell Imaging Solution (LCIS, Invitrogen Company) and an acid at a low pH ([…] NaCl solution containing 0.5% acetic acid) for 30 s, respectively, followed by fixing with cold methanol, and was observed under fluorescence microscope.

[10] = EV71 (SZ-98 strain), therapeutic effect on Vero cell, read-out: IC50

| SMILES | IC50 [1, 10] [µM] | IC50 ([1]; Enterovirus, EV71, Vero cell, read-out: activity (IC50)) [µM] | IC50 ([3]; EV71 (SZ-98 strain)) [µM] | IC50 ([3]; Enterovirus, EV71) [µM] | IC50 [4] [µM] | IC50 [5] [µM] | IC50 [2] [µM] | anti-EV71 activity (in words) [3] | CC50 [6] [µM] | CC50 at 2 h [6] [µM] | toxicity compared with the positive control agent (in words) (Vero cell) | CC50 [7] [µM] | CC50 at 2 h [8] [µM] | CC50 [8] [µM] | endocytosis of transferrin at 20 μM (in words) [9] | inhibitory effect on endocytosis of transferrin (in words) [9] | inhibition at 20 µM [9] [%] | TC50 (Vero cell; Table 1-1 (therapeutic effect)) [µM] | CC50 ([8]; Table 1-3 (therapeutic effect)) [µM] |
| --- | --- | --- | --- | --- | --- | --- | --- | --- | --- | --- | --- | --- | --- | --- | --- | --- | --- | --- | --- |
| CCN(CC)c1ccc(/C=C2\SC(NS(=O)(=O)c3cccc4ccccc34)=NC2=O)c(O)c1 [Compound 3, Naphthalene-1-sulfonic acid [5-(2-hydroxy-4-diethylamino-benzylidene)-4-oxo-4,5-dihydro-thiazol-2-yl] amide] | 5.14 | 5.14 | 7.41 | 7.41 | > 7.41 | > 7.41 | > 7.41 | better anti-EV71 activity | 12.8 | 12.8 | a lower toxicity than the positive control agent | 12.8 | 12.8 | 12.8 | completely inhibited | dose-dependent | 100 |  |  |
| O=C1N=C(NS(=O)(=O)c2cccc3ccccc23)S/C1=C\c1ccc(C(=O)O)cc1 [Compound 5, Naphthalene-1-sulfonic acid [5-(4-carboxy-benzylidene)-4-oxo-4,5-dihydro-thiazol-2-yl] amide] | > 200 |  | 22.2 |  | ≥ 22.2 | 200 | > 200 | better anti-EV71 activity |  | 200 |  | > 200 | > 200 |  |  |  |  | 200 | > 200 |
| O=C1N=C(NS(=O)(=O)c2cccc3ccccc23)S/C1=C\c1ccc(F)cc1Cl [Compound 10, Naphthalene-1-sulfonic acid [5-(2-chloro-4-fluoro-benzylidene)-4-oxo-4,5-dihydro-thiazol-2-yl] amide] | > 7.41 |  | > 7.41 |  | > 7.41 | 5.14 | > 7.41 |  | 10.7 | 10.7 |  | 12.8 | 15.4 |  | completely inhibited | dose-dependent | 100 |  | 15.4 |
| O=C1N=C(NS(=O)(=O)c2cccc3ccccc23)S/C1=C\c1ccc(-c2ccccc2)cc1 [Compound 11, Naphthalene-1-sulfonic acid (5-biphenyl-4-yl-methylene-4-oxo-4,5-dihydro-thiazol-2-yl) amide] | > 0.82 |  | > 22.2 |  | > 0.82 | > 22.2 | > 7.41 |  | 3.56 | 3.56 |  | 32 | 46.2 |  |  |  |  |  | 46.2 |
| CC(=O)Nc1ccc(/C=C2\SC(NS(=O)(=O)c3cccc4ccccc34)=NC2=O)cc1 [Compound 12, Naphthalene-1-sulfonic acid [5-(4-acetylamino-benzylidene)-4-oxo-4,5-dihydro-thiazol-2-yl] amide] | > 22.2 |  | > 22.2 |  | > 22.2 | > 22.2 | > 22.2 |  | 32 | 32 |  | 38.5 | 38.5 |  |  |  |  |  | 38.5 |

The next lines start with results.

| IC50 [1, 10] [µM] | IC50 ([1]; Enterovirus, EV71, Vero cell, read-out: activity (IC50)) [µM] | IC50 ([3]; EV71 (SZ-98 strain)) [µM] | IC50 ([3]; Enterovirus, EV71) [µM] | IC50 [4] [µM] | IC50 [5] [µM] | SMILES | IC50 [2] [µM] | anti-EV71 activity (in words) [3] | CC50 [6] [µM] | CC50 at 2 h [6] [µM] | toxicity compared with the positive control agent (in words) (Vero cell) | CC50 [7] [µM] | CC50 at 2 h [8] [µM] | CC50 [8] [µM] | endocytosis of transferrin at 20 μM (in words) [9] | inhibitory effect on endocytosis of transferrin (in words) [9] | inhibition at 20 µM [9] [%] | TC50 (Vero cell; Table 1-1 (therapeutic effect)) [µM] | CC50 ([8]; Table 1-3 (therapeutic effect)) [µM] |
| --- | --- | --- | --- | --- | --- | --- | --- | --- | --- | --- | --- | --- | --- | --- | --- | --- | --- | --- | --- |
| > 22.2 |  | > 22.2 |  | > 22.2 | 7.41 | O=C1N=C(NS(=O)(=O)c2cccc3ccccc23)SC1Nc1ccccc1 (stereo not drawn) [Compound 13, Naphthalene-1-sulfonic acid (4-oxo-5-phenylamino-4,5-dihydro-thiazol-2-yl) amide] | > 22.2 |  | 66.7 | 66.7 |  | 66.7 | 66.7 |  |  |  | 50 |  | 66.7 |
| 15.4 |  | 15.4 |  | > 22.2 | 22.2 | O=C1N=C(NS(=O)(=O)c2cccc3ccccc23)SC1C(c1ccccc1)c1ccc(Br)cc1 (stereo not drawn) [Compound 14, Naphthalene-1-sulfonic acid {5-[(4-bromo-phenyl)-phenyl-methyl]-4-oxo-4,5-dihydro-thiazol-2-yl} amide] | 15.4 | better anti-EV71 activity | 32 | 32 |  | 32 | 38.5 |  | completely inhibited | dose-dependent | 100 |  | 38.5 |
| > 2.47 |  | 5.41 | 5.14 | > 2.47 | 5.14 | O=C1N=C(NS(=O)(=O)c2cccc3ccccc23)S/C1=C\c1ccc(Br)cc1 [Con 1, Naphthalene-1-sulfonic acid [5-(4-bromo-benzylidene)-4-oxo-4,5-dihydro-thiazol-2-yl] amide, reference compound] | > 2.47 |  | 4.28 | 4.28 |  | 10.7 | 12.8 | 12.8 |  | dose-dependent | 50 |  |  |
